Measurements as given in the NIST ThermoML archive (doi:10.1016/j.fluid.2015.10.026).

Details: Brillouin light scattering

CCC(C)(C)OC [2-methoxy-2-methylbutane]
Details	speed of sound [m/s]
443.15 K, 2500 kPa, Liquid	537.57
443.15 K, 4000 kPa, Liquid	561.49
443.15 K, 5500 kPa, Liquid	584.45
443.15 K, 7000 kPa, Liquid	606.46
443.15 K, 8500 kPa, Liquid	627.51
443.15 K, 10000 kPa, Liquid	647.61
453.15 K, 660 kPa, Liquid	468.81
453.15 K, 2500 kPa, Liquid	495.6
453.15 K, 4000 kPa, Liquid	520.74
453.15 K, 5500 kPa, Liquid	544.94
453.15 K, 7000 kPa, Liquid	568.2
453.15 K, 8500 kPa, Liquid	590.53
453.15 K, 10000 kPa, Liquid	611.92
463.15 K, 820 kPa, Gas	194.03
463.15 K, 820 kPa, Liquid	424.99
463.15 K, 2500 kPa, Liquid	453.48
463.15 K, 4000 kPa, Liquid	479.86
463.15 K, 5500 kPa, Liquid	505.34
463.15 K, 7000 kPa, Liquid	529.91
463.15 K, 8500 kPa, Liquid	553.58
463.15 K, 10000 kPa, Liquid	576.34
473.15 K, 1010 kPa, Gas	187.27
473.15 K, 1010 kPa, Liquid	380.39
473.15 K, 4000 kPa, Liquid	438.87
473.15 K, 5500 kPa, Liquid	465.66
473.15 K, 7000 kPa, Liquid	491.59
473.15 K, 8500 kPa, Liquid	516.66
473.15 K, 10000 kPa, Liquid	540.87
483.15 K, 1240 kPa, Gas	179.96
483.15 K, 1240 kPa, Liquid	334.95
483.15 K, 4000 kPa, Liquid	397.75
483.15 K, 5500 kPa, Liquid	425.9
488.15 K, 1370 kPa, Gas	175.42
488.15 K, 1370 kPa, Liquid	311.9
493.15 K, 1520 kPa, Gas	169.9
493.15 K, 1520 kPa, Liquid	288.63
493.15 K, 4000 kPa, Liquid	356.51
493.15 K, 5500 kPa, Liquid	386.06
498.15 K, 1680 kPa, Gas	163.13
498.15 K, 1680 kPa, Liquid	265.12
498.15 K, 4000 kPa, Liquid	335.85
498.15 K, 5500 kPa, Liquid	366.12
503.15 K, 1860 kPa, Gas	154.8
503.15 K, 1860 kPa, Liquid	241.38
503.15 K, 4000 kPa, Liquid	315.16
503.15 K, 5500 kPa, Liquid	346.15
508.15 K, 2060 kPa, Gas	144.62
508.15 K, 2060 kPa, Liquid	217.4
508.15 K, 4000 kPa, Liquid	294.43
508.15 K, 5500 kPa, Liquid	326.16
513.15 K, 2270 kPa, Gas	132.28
513.15 K, 2270 kPa, Liquid	193.18
513.15 K, 4000 kPa, Liquid	273.68
513.15 K, 5500 kPa, Liquid	306.15
518.15 K, 2500 kPa, Gas	117.47
518.15 K, 2500 kPa, Liquid	168.7
518.15 K, 4000 kPa, Liquid	252.89
518.15 K, 5500 kPa, Liquid	286.12
523.15 K, 2760 kPa, Gas	99.85
523.15 K, 2760 kPa, Liquid	143.98
523.15 K, 4000 kPa, Liquid	232.08
523.15 K, 5500 kPa, Liquid	266.07
537.15 K, 5000 kPa, Fluid (supercritical or subcritical phases)	228.75
537.15 K, 6000 kPa, Fluid (supercritical or subcritical phases)	279.45
538.63 K, 4000 kPa, Fluid (supercritical or subcritical phases)	166.74
540.07 K, 7000 kPa, Fluid (supercritical or subcritical phases)	308.01
547.15 K, 5000 kPa, Fluid (supercritical or subcritical phases)	173.14
547.15 K, 6000 kPa, Fluid (supercritical or subcritical phases)	231.15
548.05 K, 7000 kPa, Fluid (supercritical or subcritical phases)	273.71
548.23 K, 4000 kPa, Fluid (supercritical or subcritical phases)	93.78
557.15 K, 5000 kPa, Fluid (supercritical or subcritical phases)	137.45
557.15 K, 6000 kPa, Fluid (supercritical or subcritical phases)	185.53
557.95 K, 4000 kPa, Fluid (supercritical or subcritical phases)	114.59
558.89 K, 7000 kPa, Fluid (supercritical or subcritical phases)	235.39
567.15 K, 5000 kPa, Fluid (supercritical or subcritical phases)	122.01
567.15 K, 6000 kPa, Fluid (supercritical or subcritical phases)	152.32
567.35 K, 4000 kPa, Fluid (supercritical or subcritical phases)	139.87
568.4 K, 7000 kPa, Fluid (supercritical or subcritical phases)	200.04
577 K, 5000 kPa, Fluid (supercritical or subcritical phases)	139.01
577 K, 6000 kPa, Fluid (supercritical or subcritical phases)	140.84
577.42 K, 7000 kPa, Fluid (supercritical or subcritical phases)	176.29
577.5 K, 4000 kPa, Fluid (supercritical or subcritical phases)	156.64
586.07 K, 7000 kPa, Fluid (supercritical or subcritical phases)	158.23
586.09 K, 6000 kPa, Fluid (supercritical or subcritical phases)	146.23
586.58 K, 4000 kPa, Fluid (supercritical or subcritical phases)	172.49
586.8 K, 5000 kPa, Fluid (supercritical or subcritical phases)	155.55
597.62 K, 7000 kPa, Fluid (supercritical or subcritical phases)	156.64
598.22 K, 6000 kPa, Fluid (supercritical or subcritical phases)	159.43
599.01 K, 5000 kPa, Fluid (supercritical or subcritical phases)	172.16
599.67 K, 4000 kPa, Fluid (supercritical or subcritical phases)	188.97
607.67 K, 7000 kPa, Fluid (supercritical or subcritical phases)	165.36
608.42 K, 6000 kPa, Fluid (supercritical or subcritical phases)	174.49
609.14 K, 5000 kPa, Fluid (supercritical or subcritical phases)	187.44
610.53 K, 4000 kPa, Fluid (supercritical or subcritical phases)	204.31
616.46 K, 7000 kPa, Fluid (supercritical or subcritical phases)	175.98
617.13 K, 6000 kPa, Fluid (supercritical or subcritical phases)	187.48
618.08 K, 5000 kPa, Fluid (supercritical or subcritical phases)	199.99
618.29 K, 4000 kPa, Fluid (supercritical or subcritical phases)	213.66
626.75 K, 7000 kPa, Fluid (supercritical or subcritical phases)	188.95
627.35 K, 6000 kPa, Fluid (supercritical or subcritical phases)	199.55
628.15 K, 5000 kPa, Fluid (supercritical or subcritical phases)	210.83
629.14 K, 4000 kPa, Fluid (supercritical or subcritical phases)	222.93
636.88 K, 6000 kPa, Fluid (supercritical or subcritical phases)	207.42
636.88 K, 7000 kPa, Fluid (supercritical or subcritical phases)	199.92
638.41 K, 5000 kPa, Fluid (supercritical or subcritical phases)	218.7
639.77 K, 4000 kPa, Fluid (supercritical or subcritical phases)	229.85
645.57 K, 5000 kPa, Fluid (supercritical or subcritical phases)	222.56
645.57 K, 6000 kPa, Fluid (supercritical or subcritical phases)	213.28
645.57 K, 7000 kPa, Fluid (supercritical or subcritical phases)	204.49
646.51 K, 4000 kPa, Fluid (supercritical or subcritical phases)	233.5
656.29 K, 5000 kPa, Fluid (supercritical or subcritical phases)	226.62
656.29 K, 7000 kPa, Fluid (supercritical or subcritical phases)	208.95
656.31 K, 6000 kPa, Fluid (supercritical or subcritical phases)	217.14
657.59 K, 4000 kPa, Fluid (supercritical or subcritical phases)	237.14
669.94 K, 5000 kPa, Fluid (supercritical or subcritical phases)	230.37
669.94 K, 7000 kPa, Fluid (supercritical or subcritical phases)	211.48
669.98 K, 6000 kPa, Fluid (supercritical or subcritical phases)	220.01
670.97 K, 4000 kPa, Fluid (supercritical or subcritical phases)	240.91
680.25 K, 5000 kPa, Fluid (supercritical or subcritical phases)	233.53
680.27 K, 4000 kPa, Fluid (supercritical or subcritical phases)	242.88
680.27 K, 7000 kPa, Fluid (supercritical or subcritical phases)	215.49
680.32 K, 6000 kPa, Fluid (supercritical or subcritical phases)	223.86
